# From patent publication US8633243B2, “Forms of CDDO methyl ester” (priority 2007, dated 2014)
# Like-named read-outs stand apart in the source and are kept apart here.
# Experiments:
# [1] = test system: MCF-7/Her-2 Breast Cancer Xenograft; conditions: i.v.; doses at or below the MTD; Konopleva et al. 2006; cited from earlier work
# [2] = test system: COX-2, iNOS, phosphorylated STAT3 (pSTAT3); assay: Phase I trial, tumor biopsy data
# [3] = test system: NCI-60 tumor cell line panel; type: cell-based; conditions: average over panel
# [4] = test system: MMP-9, TNFα, IL-8, and VEGF; assay: Phase I trial, circulating inflammatory cytokines; type: in vivo, human
# Procedure: Based on the known anti-inflammatory properties of CDDO-Me, circulating inflammatory cytokines were evaluated in patients in the Phase I trial. At doses as low as 5 mg/day, there was a reduction of several circulating pro-inflammatory cytokines and chemokines including MMP-9, TNFα, IL-8, and VEGF.
# [5] = test system: 4T1 Syngeneic Breast Cancer; conditions: i.v., cited from earlier work
# [6] = Approximate solubility, solvent addition method; type: physicochemical; conditions: thermodynamic from solid, room temperature
# Procedure: A weighed sample was treated with aliquots of the test solvent at room temperature. Complete dissolution of the test material was determined by visual inspection. Solubility was estimated based on the total solvent used to provide complete dissolution. The actual solubility may be greater than the value calculated because of the use of solvent aliquots that were too large or due to a slow rate of dissolution. […] If complete dissolution was achieved as a result of only one aliquot addition, the solubility is expressed as “greater than.” Approximate solubilities were determined in various solvents at room temperature, with the results as provided in Table 2.
# [7] = test system: advanced (metastatic) cancer; assay: Phase I dose-escalation trial, safety and anti-tumor activity; type: in vivo, human
# Text: Both the safety and anti-tumor activity of CDDO-Me were reviewed. In addition, the biological effects of CDDO-Me were characterized. […] Several patients (approximately 75% of evaluable patients) were considered to have stable disease (based on standard radiological and clinical criteria) at the first evaluation point following completion of the second treatment cycle. […] Five patients, including patients with melanoma and renal cell cancer, continued to show stable disease, some with evidence of regression of individual tumor lesions, after four cycles of treatment. Four patients were considered to have stable disease after at least six cycles of treatment.
# [8] = test system: NCI-H460 Lung Cancer Xenograft; assay: NCI-H460 Lung Cancer Xenograft; conditions: p.o.
# [9] = test system: NQO1 (NAD(P)H:quinone oxidoreductase); assay: Phase I trial, phase 2 gene products in peripheral blood mononuclear cells; type: in vivo, human; conditions: doses of 10 mg/day and above
# Text: Additionally, phase 2 gene products, which include antioxidant and detoxification enzymes, have been monitored in peripheral blood mononuclear cells of patients in the Phase I study.
# [10] = test system: DU-145 Prostate Cancer Xenograft; assay: DU-145 Prostate Cancer Xenograft; conditions: p.o.
# [11] = Phase I trial, serum creatinine; conditions: day 21
# [12] = test system: L3.6PL Pancreatic Cancer Xenograft; assay: L3.6PL Pancreatic Cancer Xenograft; conditions: i.v.
compound,measurement,setting,value
"COC(=O)[C@]12CCC(C)(C)C[C@H]1[C@H]1C(=O)C=C3[C@@]4(C)C=C(C#N)C(=O)C(C)(C)[C@@H]4CC[C@@]3(C)[C@]1(C)CC2 [CDDO methyl ester, methyl 2-cyano-3,12-dioxoleana-1,9(11)-dien-28-oate]","DRUG ACTIVITY, regression",[1],15% regression
same,"tumor tissue levels of COX-2, iNOS and pSTAT3",[2]; biopsies of several patients after two cycles,pronounced reductions
same,tumor cell death in biopsy,"[2]; several patients, after two cycles",pronounced degree of tumor cell death
same,IC50,[3],~35 nM
same,circulating TNFα,"[4]; 3 patients with elevated baseline TNF levels, 10, 20 and 40 mg per day",reduced substantially or to below detectable limits
same,"circulating pro-inflammatory cytokines and chemokines including MMP-9, TNFα, IL-8, and VEGF",[4]; doses as low as 5 mg/day,reduction
same,"DRUG ACTIVITY, suppression",[5]; Delayed Treatment,67% suppression
same,animals tumor-free at sacrifice,"[5]; Delayed Treatment, sacrifice on Day 95",33% of animals tumor-free at
same,"DRUG ACTIVITY, suppression","[5]; Early Treatment, Ling et al. 2007",100% suppression
same,animals tumor-free at sacrifice,"[5]; Early Treatment, sacrifice on Day 85",All animals remained tumor-free
same,solubility,"[6]; isopropanol/water (10:1), organic solvent or mixture, (10:1) Isopropanol/water",4 mg/mL
same,solubility,"[6]; organic solvent or mixture, 1,4-Dioxane",21 mg/mL
same,solubility,"[6]; organic solvent or mixture, ACN (acetonitrile)",66 mg/mL
same,solubility,"[6]; organic solvent or mixture, Acetone",70 mg/mL
same,solubility,"[6]; organic solvent or mixture, DCM (dichloromethane)",> 194 mg/mL
same,solubility,"[6]; organic solvent or mixture, EtOAc (ethyl acetate)",36 mg/mL
same,solubility,"[6]; organic solvent or mixture, EtOH (ethanol)",4 mg/mL
same,solubility,"[6]; organic solvent or mixture, Hexanes",< 1 mg/mL
same,solubility,"[6]; organic solvent or mixture, MTBE (tert-butyl methyl ether)",4 mg/mL
same,solubility,"[6]; organic solvent or mixture, MeOH (methanol)",8 mg/mL
same,solubility,"[6]; organic solvent or mixture, THF (tetrahydrofuran)",97 mg/mL
same,solubility,"[6]; organic solvent or mixture, Toluene",38 mg/mL
same,solubility,[6]; Water,< 0.1 mg/mL
same,drug-related adverse events,"[7]; 5 to 900 mg/day, 21 days on / 7 days rest",no significant drug-related adverse events reported
same,patients considered to have stable disease,[7]; after at least six cycles of treatment,Four
same,patients continuing to show stable disease,[7]; after four cycles of treatment,Five
same,tolerability,"[7]; capsules of micronized Form A, 5 to 900 mg/day, 21 days on / 7 days rest, 21 adult patients",very well tolerated
same,evaluable patients with stable disease,[7]; first evaluation point after the second treatment cycle,approximately 75%
same,new metastases,[7]; patients receiving at least 40 mg per day,No new metastases developed
same,comparison with radiation,[8],Me as effective as radiation
same,"DRUG ACTIVITY, TGI (Tumor Growth Inhibition)",[8]; doses at or below the MTD,78% TGI^1
same,NQO1 in peripheral blood mononuclear cells,[9],Significant induction
same,"DRUG ACTIVITY, TGI (Tumor Growth Inhibition)",[10]; doses at or below the MTD,77% TGI
same,"TGI, multiple schedules tested",[10]; multiple schedules,60-77%
same,patients with serum creatinine significantly lower than pre-treatment baseline,[11],more than 80%
same,comparison with Gemcitabine,[12],CDDO-Me outperformed
same,"DRUG ACTIVITY, TGI (Tumor Growth Inhibition)",[12]; doses at or below the MTD,51% TGI
